Drawing on patent publication US7803801B2, “Aminopyridine compounds having Syk inhibitory activity” (Japan Tobacco, Inc., priority 2005, dated 2010), this text covers IC50 for 15 compounds.

The IC50 is the concentration needed to halve the response being measured.

Like-named read-outs stand apart in the source and are kept apart here.

Assay [1] has as its target GST-Syk Full Protein (human) (Homo sapiens, UniProt P43405). In words: Syk kinase inhibition test (HTRF method). It is filed as biochemical. In a few lines: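 HTRF read-out: after EDTA termination and 1 h with XL665-streptavidin and Eu-anti-phosphotyrosine, the 665/620 nm ratio was measured. The reaction ran 30 min at 20–25 °C with final 6.4 nM human GST-Syk, 250 nM biotinylated peptide, 100 μM ATP, pH 7.0 HEPES buffer, 2% DMSO.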
A general note: Time-resolved FRET reads energy transfer from a long-lived donor to a nearby acceptor.

Assay [2] deals with cultured human mast cells. In words: Degranulation inhibition test using cultured human mast cells (IgE cross-linking, β-Hexosaminidase release). It is filed as cell-based. The note with it: Mast cell, cultured human mast cells, read-out: human degranulation ave. IC50. Summed up: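 Degranulation was triggered by anti-hIgE (10 μg/mL final, 30 min, 37 °C) after a 10-min compound pretreatment (DMSO 0.1%) of cord-blood CD34+-derived mast cells primed 5 days with IL-4 and IgE. β-Hexosaminidase in supernatant was measured with p-nitrophenyl-GlcNAc substrate (A405), expressed against water-lysed total; IC50 (M).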

Where [3] appears, read: Tables 1-x, compounds A, read-out: sykHTRF ave IC50.
The mark [4] stands for this setting: HTRF, 100 μM ATP, 30 min room temperature, average, read-out: sykHTRF ave IC50.
Setting [5] is: anti-hIgE stimulation, β-Hexosaminidase index, average.

Take `CC1(c2ccnc(Nc3cccc(-c4cnc(N5CC[C@@H](O)C5)s4)n3)c2)OCCO1` [Compound A-548, (R)-1-(5-{6-[4-(2-methyl-[1,3]dioxolan-2-yl)pyridin-2-ylamino]pyridin-2-yl}thiazol-2-yl)pyrrolidin-3-ol]: the half-inhibitory concentration (IC50) in assay [1] (setting [3]) was < 100 nM; in assay [2] (Tables 1-x, compounds A), 100 to 1000 nM.
Consider `Cc1ccnc(Nc2cccc(-c3cnc(Cc4ccc(CO)cc4)s3)n2)c1` [Compound A-243, (4-{5-[6-(4-methylpyridin-2-ylamino)pyridin-2-yl]thiazol-2-ylmethyl}phenyl)methanol], for which the IC50 in assay [1] (setting [4]) is < 100 nM; in assay [2] (setting [5]), 100 to 1000 nM.
`Cc1ccnc(Nc2cccc(-c3cnc(C4CCN(S(=O)(=O)C(C)C)CC4)s3)n2)c1` [Compound A-398]: the half-inhibitory concentration (IC50) in assay [1] (setting [3]) is 100 to 1000 nM; in assay [2] (Tables 1-x, compounds A) it was > 1000 nM.
On to `Cc1ccnc(Nc2cccc(-c3cnc(CCc4ccc(C(=O)NCCO)cc4)s3)n2)c1` [Compound A-162, N-(2-hydroxyethyl)-4-(2-{5-[6-(4-methylpyridin-2-ylamino)pyridin-2-yl]thiazol-2-yl}ethyl)benzamide], for which the half-inhibitory concentration (IC50) in assay [1] (setting [4]) is < 100 nM; in assay [2] (setting [5]), 100 to 1000 nM.
On the same counts, the results for `COC1CCN(C(=O)[C@H]2CC[C@H](c3ncc(-c4cccc(Nc5cc(C)ccn5)n4)s3)CC2)CC1` [Compound A-280] are 100 to 1000 nM and 100 to 1000 nM.
On the same counts, the results for `Cc1ccnc(Nc2cccc(-c3cnc([C@@H](N)Cc4ccc(N)cc4)s3)n2)c1` [Compound A-180] are 100 to 1000 nM and > 1000 nM.
The like results for `CC(=O)N1C[C@H](OCc2ccccc2)C[C@H]1c1ncc(-c2cccc(Nc3cc(C)ccn3)n2)s1` [Compound A-90] were, in that order, 100 to 1000 nM and > 1000 nM.
In the case of `COc1ccc(C[C@H](N)c2ncc(-c3cccc(Nc4cc(C)ccn4)n3)s2)cc1OC` [Compound A-138], the values for the concentration for half-maximal inhibition (IC50) in assay [1] (setting [4]) and in assay [2] (setting [5]) were 100 to 1000 nM and > 1000 nM, respectively.
The like results for `Cc1ccnc(Nc2cccc(-c3cnc([C@H](C)NC(=O)c4ccc(O)cc4)s3)n2)c1` [Compound A-347] were, in that order, 100 to 1000 nM and 100 to 1000 nM.
As to `Cc1ccnc(Nc2cccc(-c3cnc(CCC4CCN(C(=O)C5CCNCC5)CC4)s3)n2)c1` [Compound A-295, [4-(2-{5-[6-(4-methylpyridin-2-ylamino)pyridin-2-yl]thiazol-2-yl}ethyl)piperidin-1-yl]-(piperidin-4-yl)metanone], the IC50 was < 100 nM in assay [1] (setting [4]) and > 1000 nM in assay [2] (setting [5]).
As for `Cc1ccnc(Nc2cccc(-c3ccc(C(C)O)s3)n2)c1` (stereo not drawn) [Compound B-3, 1-{5-[6-(4-methylpyridin-2-ylamino)pyridin-2-yl]thiophen-2-yl}ethanol], the IC50 was in the range of 100 to 1000 nM in assay [1] (Tables 2-x, thiophene compounds B, read-out: sykHTRK ave IC50) and 100 to 1000 nM in assay [2] (Tables 2-x, thiophene compounds B).
For `CC(=O)NC1CCN(Cc2ncc(-c3cccc(Nc4cc(C)ccn4)n3)s2)CC1` [Compound A-210], the half-inhibitory concentration (IC50) in assay [1] (setting [4]) and in assay [2] (setting [5]) was > 1000 nM in each case.
Turning to `Cc1ccnc(Nc2cccc(-c3cnc(N4CCCC(C(N)=O)C4)s3)n2)c1` (stereo not drawn) [Compound A-476, 1-{5-[6-(4-methylpyridin-2-ylamino)pyridin-2-yl]thiazol-2-yl}piperidine-3-carboxamide], the IC50 in assay [1] (setting [3]) is < 100 nM; in assay [2] (Tables 1-x, compounds A) it was < 100 nM.
In the case of `Cc1ccnc(Nc2cccc(-c3cnc(N4C[C@@H](O)[C@@H](O)C4)s3)n2)c1` [Compound A-423, (3R,4S)-1-{5-[6-(4-methylpyridin-2-ylamino)pyridin-2-yl]thiazol-2-yl}pyrrolidine-3,4-diol], the 50% inhibitory concentration (IC50) in assay [1] (setting [3]) is < 100 nM; in assay [2] (Tables 1-x, compounds A) it was 100 to 1000 nM.
As for `Cc1ccnc(Nc2cccc(-c3cnc(CN[C@H]4CC[C@H](O)CC4)s3)n2)c1` [Compound A-191], the half-inhibitory concentration (IC50) in assay [1] (setting [4]) and in assay [2] (setting [5]) was 100 to 1000 nM throughout.
